# Data published in ChEMBL document CHEMBL3885881, “DrugMatrix”.
# Species on record: Rattus norvegicus
# Assay: DrugMatrix - Regimen: Daily Repeat
# Type: toxicity, organism-based, Sprague-Dawley
# Parameters: regimen Daily Repeat, gender Male, age 6-8 weeks
# Details: in vivo, po, route oral GAVAGE, vehicle 100 % WATER; for ABSOLUTE BASOPHIL / ABSOLUTE EOSINOPHIL / ABSOLUTE LYMPHOCYTE / ABSOLUTE MONOCYTE / ABSOLUTE SEGMENTED NEUTROPHIL / BASOPHIL / EOSINOPHIL / ERYTHROCYTE COUNT / HEMATOCRIT / HEMOGLOBIN / LEUKOCYTE COUNT / LYMPHOCYTE / MEAN CORPUSCULAR HEMOGLOBIN / MEAN CORPUSCULAR HEMOGLOBIN CONCENTRATION / MEAN CORPUSCULAR VOLUME / MONOCYTE / NEUTROPHIL / NUCLEATED RED BLOOD CELLS / PLATELET COUNT: tissue Blood; for ALANINE AMINOTRANSFERASE / ALBUMIN / ALKALINE PHOSPHATASE / ASPARTATE AMINOTRANSFERASE / BLOOD UREA NITROGEN / CARBON DIOXIDE / CHLORIDE / CHOLESTEROL / CREATINE PHOSPHOKINASE / CREATININE / GLUCOSE / LACTATE DEHYDROGENASE / LIPASE / PHOSPHORUS / POTASSIUM / SODIUM / TOTAL BILIRUBIN / TOTAL PROTEIN / URIC ACID: tissue Plasma
# [1] = 0 mg/kg, 72 h, dose level Control, time 3 day
# [2] = 0 mg/kg, 120 h, dose level Control, time 5 day
# [3] = 25 mg/kg, 72 h, dose level High, time 3 day
compound,measurement,setting,value
O=P1(N(CCCl)CCCl)NCCCO1 (centres undefined) [CYCLOPHOSPHAMIDE ANHYDROUS],ABSOLUTE BASOPHIL,[1],0 CELLS/uL
same,ABSOLUTE EOSINOPHIL,[1],32.5 CELLS/uL
same,ABSOLUTE LYMPHOCYTE,[1],9305.83 CELLS/uL
same,ABSOLUTE MONOCYTE,[1],43.83 CELLS/uL
same,ABSOLUTE SEGMENTED NEUTROPHIL,[1],817.83 CELLS/uL
same,BASOPHIL,[1],0%
same,EOSINOPHIL,[1],0.33%
same,ERYTHROCYTE COUNT,[1],5.38 x10E6/uL
same,HEMATOCRIT,[1],33.63%
same,HEMOGLOBIN,[1],13.17 G/DL
same,LEUKOCYTE COUNT,[1],10.2 x10E3/uL
same,LYMPHOCYTE,[1],91.17%
same,MEAN CORPUSCULAR HEMOGLOBIN,[1],24.5 pg
same,MEAN CORPUSCULAR HEMOGLOBIN CONCENTRATION,[1],39.13 G/DL
same,MEAN CORPUSCULAR VOLUME,[1],62.53 fL
same,MONOCYTE,[1],0.5%
same,NEUTROPHIL,[1],8%
same,NUCLEATED RED BLOOD CELLS,[1],0.17 /100WBC
same,PLATELET COUNT,[1],858 x10E3/uL
same,ALANINE AMINOTRANSFERASE,[1],55.67 u/L
same,ALBUMIN,[1],4.07 G/DL
same,ALKALINE PHOSPHATASE,[1],337 u/L
same,ASPARTATE AMINOTRANSFERASE,[1],84 u/L
same,BLOOD UREA NITROGEN,[1],13.17 mg/dL
same,CARBON DIOXIDE,[1],34.17 mmol/L
same,CHLORIDE,[1],99.33 MEQ/L
same,CHOLESTEROL,[1],78.83 mg/dL
same,CREATINE PHOSPHOKINASE,[1],576.83 u/L
same,CREATININE,[1],0.17 mg/dL
same,GLUCOSE,[1],152.67 mg/dL
same,LACTATE DEHYDROGENASE,[1],147.83 u/L
same,LIPASE,[1],9.5 u/L
same,PHOSPHORUS,[1],10.78 mg/dL
same,POTASSIUM,[1],6.34 MEQ/L
same,SODIUM,[1],144.12 MEQ/L
same,TOTAL BILIRUBIN,[1],0.18 mg/dL
same,TOTAL PROTEIN,[1],6.08 G/DL
same,URIC ACID,[1],0.65 mg/dL
same,ABSOLUTE BASOPHIL,[2],0 CELLS/uL
same,ABSOLUTE EOSINOPHIL,[2],31.17 CELLS/uL
same,ABSOLUTE LYMPHOCYTE,[2],7918.33 CELLS/uL
same,ABSOLUTE MONOCYTE,[2],58.33 CELLS/uL
same,ABSOLUTE SEGMENTED NEUTROPHIL,[2],725.5 CELLS/uL
same,BASOPHIL,[2],0%
same,EOSINOPHIL,[2],0.33%
same,ERYTHROCYTE COUNT,[2],5.32 x10E6/uL
same,HEMATOCRIT,[2],33.53%
same,HEMOGLOBIN,[2],13.17 G/DL
same,LEUKOCYTE COUNT,[2],8.73 x10E3/uL
same,LYMPHOCYTE,[2],90.33%
same,MEAN CORPUSCULAR HEMOGLOBIN,[2],24.82 pg
same,MEAN CORPUSCULAR HEMOGLOBIN CONCENTRATION,[2],39.33 G/DL
same,MEAN CORPUSCULAR VOLUME,[2],63.12 fL
same,MONOCYTE,[2],0.67%
same,NEUTROPHIL,[2],8.67%
same,NUCLEATED RED BLOOD CELLS,[2],0 /100WBC
same,PLATELET COUNT,[2],1144.83 x10E3/uL
same,ALANINE AMINOTRANSFERASE,[2],60.5 u/L
same,ALBUMIN,[2],3.97 G/DL
same,ALKALINE PHOSPHATASE,[2],343.17 u/L
same,ASPARTATE AMINOTRANSFERASE,[2],80.83 u/L
same,BLOOD UREA NITROGEN,[2],15 mg/dL
same,CARBON DIOXIDE,[2],31 mmol/L
same,CHLORIDE,[2],99.75 MEQ/L
same,CHOLESTEROL,[2],71.5 mg/dL
same,CREATINE PHOSPHOKINASE,[2],237.17 u/L
same,CREATININE,[2],0.17 mg/dL
same,GLUCOSE,[2],137 mg/dL
same,LACTATE DEHYDROGENASE,[2],146.17 u/L
same,LIPASE,[2],11.5 u/L
same,PHOSPHORUS,[2],10.13 mg/dL
same,POTASSIUM,[2],6 MEQ/L
same,SODIUM,[2],145 MEQ/L
same,TOTAL BILIRUBIN,[2],0.13 mg/dL
same,TOTAL PROTEIN,[2],5.82 G/DL
same,URIC ACID,[2],0.62 mg/dL
same,ABSOLUTE BASOPHIL,[3],0 CELLS/uL
same,ABSOLUTE EOSINOPHIL,[3],0 CELLS/uL
same,ABSOLUTE LYMPHOCYTE,[3],2636 CELLS/uL
same,ABSOLUTE MONOCYTE,[3],11 CELLS/uL
same,ABSOLUTE SEGMENTED NEUTROPHIL,[3],486.33 CELLS/uL
same,BASOPHIL,[3],0%
same,EOSINOPHIL,[3],0%
same,ERYTHROCYTE COUNT,[3],5 x10E6/uL
same,HEMATOCRIT,[3],30.93%
same,HEMOGLOBIN,[3],12.33 G/DL
same,LEUKOCYTE COUNT,[3],3.13 x10E3/uL
same,LYMPHOCYTE,[3],83.67%
same,MEAN CORPUSCULAR HEMOGLOBIN,[3],24.73 pg
same,MEAN CORPUSCULAR HEMOGLOBIN CONCENTRATION,[3],39.87 G/DL
same,MEAN CORPUSCULAR VOLUME,[3],61.97 fL
same,MONOCYTE,[3],0.33%
same,NEUTROPHIL,[3],16%
same,NUCLEATED RED BLOOD CELLS,[3],0 /100WBC
same,PLATELET COUNT,[3],636 x10E3/uL
same,ALANINE AMINOTRANSFERASE,[3],49.33 u/L
same,ALBUMIN,[3],4.03 G/DL
same,ALKALINE PHOSPHATASE,[3],291 u/L
same,ASPARTATE AMINOTRANSFERASE,[3],68 u/L
same,BLOOD UREA NITROGEN,[3],15.67 mg/dL
same,CARBON DIOXIDE,[3],34 mmol/L
same,CHLORIDE,[3],99.5 MEQ/L
same,CHOLESTEROL,[3],84.67 mg/dL
same,CREATINE PHOSPHOKINASE,[3],160 u/L
same,CREATININE,[3],0.13 mg/dL
same,GLUCOSE,[3],147 mg/dL
same,LACTATE DEHYDROGENASE,[3],134 u/L
same,LIPASE,[3],9.67 u/L
same,PHOSPHORUS,[3],10.63 mg/dL
same,POTASSIUM,[3],5.82 MEQ/L
same,SODIUM,[3],144.75 MEQ/L
same,TOTAL BILIRUBIN,[3],0.17 mg/dL
same,TOTAL PROTEIN,[3],5.77 G/DL
same,URIC ACID,[3],0.33 mg/dL
